The text below walks through data of paper PMC4685510, “A Cell Biologist’s Field Guide to Aurora Kinase Inhibitors” (Frontiers in Oncology, 2015).

What all share (assay): biochemical
Holding throughout (assay type): biochemical

Assay [1] has as its target 363 human kinases (including Aurora A/B/C) (Homo sapiens, UniProt Q13164). As to conditions: ERK5/MAPK7, [ATP] 5 µM; for remaining activity at 0.5 µM / remaining activity at 0.1 µM: read-out: % Enzyme Activity (relative to DMSO controls); for remaining activity at 0.1 µM: 100 nM.
Description: (§1) However, the Aurora A/B selectivity ratios derived from our in vitro and in vivo data can be compared to prioritize inhibitors.
Assay [2] concerns the target T1, 363 human kinases (including Aurora A/B/C) (Homo sapiens, UniProt Q13188).
T1 sequence (Q13188 1-491): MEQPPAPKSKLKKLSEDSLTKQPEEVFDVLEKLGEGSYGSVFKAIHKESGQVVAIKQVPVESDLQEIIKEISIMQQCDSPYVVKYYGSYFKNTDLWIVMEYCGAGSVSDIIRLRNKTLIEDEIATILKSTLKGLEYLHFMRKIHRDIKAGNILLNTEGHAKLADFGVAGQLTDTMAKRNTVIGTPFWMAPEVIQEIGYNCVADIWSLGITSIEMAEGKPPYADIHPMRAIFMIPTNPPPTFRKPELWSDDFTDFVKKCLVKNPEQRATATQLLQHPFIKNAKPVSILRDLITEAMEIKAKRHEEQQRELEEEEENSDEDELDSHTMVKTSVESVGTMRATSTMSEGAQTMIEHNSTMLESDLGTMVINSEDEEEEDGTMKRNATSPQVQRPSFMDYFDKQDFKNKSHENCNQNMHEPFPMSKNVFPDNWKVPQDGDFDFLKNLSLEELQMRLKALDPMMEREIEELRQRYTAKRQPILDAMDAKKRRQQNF
As to conditions: MST2/STK3; for remaining activity at 0.5 µM / remaining activity at 0.1 µM: read-out: % Enzyme Activity (relative to DMSO controls); for remaining activity at 0.1 µM: 100 nM.
Description: as §1

For assay [3], the target named is T2, 363 human kinases (including Aurora A/B/C) (Homo sapiens, UniProt P36897).
T2 sequence (P36897 34-503): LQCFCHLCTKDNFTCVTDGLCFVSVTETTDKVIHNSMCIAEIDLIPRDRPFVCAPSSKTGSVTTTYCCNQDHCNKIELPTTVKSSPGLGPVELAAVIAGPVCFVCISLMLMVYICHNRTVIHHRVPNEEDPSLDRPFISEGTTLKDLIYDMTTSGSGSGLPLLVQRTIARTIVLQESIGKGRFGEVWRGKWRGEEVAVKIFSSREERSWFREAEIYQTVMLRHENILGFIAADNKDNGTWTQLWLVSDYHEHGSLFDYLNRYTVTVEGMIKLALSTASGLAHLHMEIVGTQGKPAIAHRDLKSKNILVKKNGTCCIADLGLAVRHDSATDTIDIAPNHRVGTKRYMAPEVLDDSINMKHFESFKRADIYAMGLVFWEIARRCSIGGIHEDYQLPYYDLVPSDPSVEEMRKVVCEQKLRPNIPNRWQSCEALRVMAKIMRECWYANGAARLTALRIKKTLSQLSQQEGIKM
As to conditions: ALK5/TGFBR1, [ATP] 100 µM; for remaining activity at 0.5 µM / remaining activity at 0.1 µM: read-out: % Enzyme Activity (relative to DMSO controls); for remaining activity at 0.1 µM: 100 nM.
Description: as §1

The target of assay [4] is T3, 363 human kinases (including Aurora A/B/C) (Homo sapiens, UniProt Q02156).
T3 sequence (Q02156 1-737): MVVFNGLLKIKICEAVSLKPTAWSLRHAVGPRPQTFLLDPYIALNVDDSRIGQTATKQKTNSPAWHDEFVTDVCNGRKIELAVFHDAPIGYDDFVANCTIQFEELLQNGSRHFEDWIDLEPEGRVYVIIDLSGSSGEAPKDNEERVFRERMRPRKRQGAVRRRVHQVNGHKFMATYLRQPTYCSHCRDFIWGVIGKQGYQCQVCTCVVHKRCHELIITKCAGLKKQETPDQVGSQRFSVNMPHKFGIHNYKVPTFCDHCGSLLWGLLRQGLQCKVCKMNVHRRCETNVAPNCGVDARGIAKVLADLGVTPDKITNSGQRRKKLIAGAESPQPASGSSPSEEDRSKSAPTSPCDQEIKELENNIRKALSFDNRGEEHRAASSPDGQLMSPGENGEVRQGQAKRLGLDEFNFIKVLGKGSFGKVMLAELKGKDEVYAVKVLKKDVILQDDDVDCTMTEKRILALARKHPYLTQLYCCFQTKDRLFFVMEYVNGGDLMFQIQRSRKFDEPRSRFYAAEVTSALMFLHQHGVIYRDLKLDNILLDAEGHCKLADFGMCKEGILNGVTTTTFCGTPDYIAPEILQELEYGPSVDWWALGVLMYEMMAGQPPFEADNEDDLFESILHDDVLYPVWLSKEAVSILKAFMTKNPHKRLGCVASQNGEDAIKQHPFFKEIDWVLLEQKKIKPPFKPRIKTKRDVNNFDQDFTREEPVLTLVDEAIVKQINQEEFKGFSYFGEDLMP
As to conditions: PKCepsilon; for remaining activity at 0.5 µM / remaining activity at 0.1 µM: read-out: % Enzyme Activity (relative to DMSO controls); for remaining activity at 0.1 µM: 100 nM.
Description: as §1

Assay [5] deals with 363 human kinases (including Aurora A/B/C) (Homo sapiens, UniProt Q8TDX7). The following applies: NEK7; for remaining activity at 0.5 µM / remaining activity at 0.1 µM: read-out: % Enzyme Activity (relative to DMSO controls); for remaining activity at 0.1 µM: 100 nM.
Chain of 363 human kinases (including Aurora A/B/C) (Homo sapiens, UniProt Q8TDX7) (Q8TDX7 whole entry): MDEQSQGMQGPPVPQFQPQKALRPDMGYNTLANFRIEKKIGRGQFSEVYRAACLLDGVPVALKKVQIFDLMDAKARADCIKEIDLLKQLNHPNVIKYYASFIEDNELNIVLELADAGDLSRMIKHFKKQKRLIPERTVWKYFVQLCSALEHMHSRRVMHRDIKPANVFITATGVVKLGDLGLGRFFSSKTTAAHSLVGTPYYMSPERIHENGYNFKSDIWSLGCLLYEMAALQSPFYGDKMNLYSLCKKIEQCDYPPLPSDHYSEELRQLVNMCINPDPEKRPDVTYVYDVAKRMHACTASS
Description: as §1
The target of assay [6] is 363 human kinases (including Aurora A/B/C) (Homo sapiens, UniProt P35968). The following applies: KDR/VEGFR2; for remaining activity at 0.5 µM / remaining activity at 0.1 µM: read-out: % Enzyme Activity (relative to DMSO controls); for remaining activity at 0.1 µM: 100 nM.
Chain of 363 human kinases (including Aurora A/B/C) (Homo sapiens, UniProt P35968) (P35968 20-1356): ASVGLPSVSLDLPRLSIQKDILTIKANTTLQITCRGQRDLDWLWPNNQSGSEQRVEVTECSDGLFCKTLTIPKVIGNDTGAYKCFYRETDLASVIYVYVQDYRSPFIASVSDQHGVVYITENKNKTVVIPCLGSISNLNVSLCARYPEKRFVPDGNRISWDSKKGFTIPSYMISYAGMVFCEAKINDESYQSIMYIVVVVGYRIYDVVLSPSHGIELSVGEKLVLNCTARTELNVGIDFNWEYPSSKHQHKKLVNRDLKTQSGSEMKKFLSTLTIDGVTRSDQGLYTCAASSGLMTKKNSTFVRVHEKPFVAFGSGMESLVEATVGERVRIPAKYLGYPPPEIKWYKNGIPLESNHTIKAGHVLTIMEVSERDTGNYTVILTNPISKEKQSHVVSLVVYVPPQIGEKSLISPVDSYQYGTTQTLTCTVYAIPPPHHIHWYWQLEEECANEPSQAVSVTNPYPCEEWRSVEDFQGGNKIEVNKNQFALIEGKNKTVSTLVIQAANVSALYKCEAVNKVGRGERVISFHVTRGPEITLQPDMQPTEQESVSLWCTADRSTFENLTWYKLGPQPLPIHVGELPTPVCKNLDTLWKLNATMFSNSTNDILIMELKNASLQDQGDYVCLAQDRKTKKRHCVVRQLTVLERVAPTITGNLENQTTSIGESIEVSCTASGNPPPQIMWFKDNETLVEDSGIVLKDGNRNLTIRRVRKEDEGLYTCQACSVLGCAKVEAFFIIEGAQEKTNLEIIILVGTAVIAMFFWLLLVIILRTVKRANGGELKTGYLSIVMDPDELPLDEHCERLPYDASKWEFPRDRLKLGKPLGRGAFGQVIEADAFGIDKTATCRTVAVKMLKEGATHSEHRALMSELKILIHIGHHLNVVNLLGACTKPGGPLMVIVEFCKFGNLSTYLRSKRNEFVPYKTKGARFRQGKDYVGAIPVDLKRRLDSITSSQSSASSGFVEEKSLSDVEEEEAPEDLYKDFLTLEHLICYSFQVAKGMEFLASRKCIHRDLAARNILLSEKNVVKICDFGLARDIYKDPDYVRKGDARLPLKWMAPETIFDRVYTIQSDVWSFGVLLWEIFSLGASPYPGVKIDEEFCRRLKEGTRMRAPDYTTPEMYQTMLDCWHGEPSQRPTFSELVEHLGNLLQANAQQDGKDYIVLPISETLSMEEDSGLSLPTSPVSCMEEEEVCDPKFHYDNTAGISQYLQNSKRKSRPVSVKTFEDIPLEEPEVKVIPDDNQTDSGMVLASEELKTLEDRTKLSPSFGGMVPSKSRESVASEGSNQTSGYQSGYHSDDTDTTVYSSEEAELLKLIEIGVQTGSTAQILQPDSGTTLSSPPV
Description: as §1
The target of assay [7] is 363 human kinases (including Aurora A/B/C) (Homo sapiens, UniProt Q9H4A3). As to conditions: WNK1; for remaining activity at 0.5 µM / remaining activity at 0.1 µM: read-out: % Enzyme Activity (relative to DMSO controls); for remaining activity at 0.1 µM: 100 nM.
Description: as §1
In assay [8] the target is 363 human kinases (including Aurora A/B/C) (Homo sapiens, UniProt Q86UE8). The following applies: TLK2; for remaining activity at 0.5 µM / remaining activity at 0.1 µM: read-out: % Enzyme Activity (relative to DMSO controls); for remaining activity at 0.1 µM: 100 nM.
Chain of 363 human kinases (including Aurora A/B/C) (Homo sapiens, UniProt Q86UE8) (Q86UE8 whole entry): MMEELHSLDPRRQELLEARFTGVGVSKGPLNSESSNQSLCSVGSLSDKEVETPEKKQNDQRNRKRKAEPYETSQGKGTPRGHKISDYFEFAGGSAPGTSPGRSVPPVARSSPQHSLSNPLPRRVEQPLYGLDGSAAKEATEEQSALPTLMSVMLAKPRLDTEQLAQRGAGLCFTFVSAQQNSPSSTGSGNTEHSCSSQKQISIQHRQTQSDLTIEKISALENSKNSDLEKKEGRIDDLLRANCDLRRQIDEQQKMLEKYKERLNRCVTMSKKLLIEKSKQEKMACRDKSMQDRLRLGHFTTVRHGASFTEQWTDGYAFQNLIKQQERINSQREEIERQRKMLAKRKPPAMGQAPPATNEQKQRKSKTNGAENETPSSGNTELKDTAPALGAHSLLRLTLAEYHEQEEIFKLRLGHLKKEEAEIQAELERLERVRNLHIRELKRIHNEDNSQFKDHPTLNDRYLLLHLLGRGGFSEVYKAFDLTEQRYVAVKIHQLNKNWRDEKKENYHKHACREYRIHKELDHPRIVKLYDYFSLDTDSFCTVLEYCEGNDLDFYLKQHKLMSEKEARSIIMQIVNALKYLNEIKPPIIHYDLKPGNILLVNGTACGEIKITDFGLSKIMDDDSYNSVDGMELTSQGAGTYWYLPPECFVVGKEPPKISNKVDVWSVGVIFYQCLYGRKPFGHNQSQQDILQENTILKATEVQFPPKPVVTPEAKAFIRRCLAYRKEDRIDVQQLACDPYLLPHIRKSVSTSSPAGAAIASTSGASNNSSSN
Description: as §1
The target of assay [9] is 363 human kinases (including Aurora A/B/C) (Homo sapiens, UniProt P07948). As to conditions: LYN; for remaining activity at 0.5 µM / remaining activity at 0.1 µM: read-out: % Enzyme Activity (relative to DMSO controls); for remaining activity at 0.1 µM: 100 nM.
Chain of 363 human kinases (including Aurora A/B/C) (Homo sapiens, UniProt P07948) (P07948 whole entry): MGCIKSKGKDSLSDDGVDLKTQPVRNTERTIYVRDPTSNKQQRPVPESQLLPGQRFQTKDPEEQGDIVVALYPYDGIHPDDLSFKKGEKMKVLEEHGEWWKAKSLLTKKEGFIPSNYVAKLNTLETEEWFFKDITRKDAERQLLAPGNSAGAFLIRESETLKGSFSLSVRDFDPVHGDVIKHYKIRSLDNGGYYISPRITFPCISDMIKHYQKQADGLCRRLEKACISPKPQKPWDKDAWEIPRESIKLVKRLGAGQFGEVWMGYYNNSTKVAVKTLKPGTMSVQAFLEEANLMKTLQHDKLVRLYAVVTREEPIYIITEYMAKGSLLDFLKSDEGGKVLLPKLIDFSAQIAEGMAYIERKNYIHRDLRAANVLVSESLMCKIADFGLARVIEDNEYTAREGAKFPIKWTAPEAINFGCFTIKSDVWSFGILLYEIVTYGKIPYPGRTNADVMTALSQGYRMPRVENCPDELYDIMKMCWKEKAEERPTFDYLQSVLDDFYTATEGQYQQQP
Description: as §1
In assay [10] the target is 363 human kinases (including Aurora A/B/C) (Homo sapiens, UniProt P29376). The following applies: TYK1/LTK; for remaining activity at 0.5 µM / remaining activity at 0.1 µM: read-out: % Enzyme Activity (relative to DMSO controls); for remaining activity at 0.1 µM: 100 nM.
Chain of 363 human kinases (including Aurora A/B/C) (Homo sapiens, UniProt P29376) (P29376 17-864): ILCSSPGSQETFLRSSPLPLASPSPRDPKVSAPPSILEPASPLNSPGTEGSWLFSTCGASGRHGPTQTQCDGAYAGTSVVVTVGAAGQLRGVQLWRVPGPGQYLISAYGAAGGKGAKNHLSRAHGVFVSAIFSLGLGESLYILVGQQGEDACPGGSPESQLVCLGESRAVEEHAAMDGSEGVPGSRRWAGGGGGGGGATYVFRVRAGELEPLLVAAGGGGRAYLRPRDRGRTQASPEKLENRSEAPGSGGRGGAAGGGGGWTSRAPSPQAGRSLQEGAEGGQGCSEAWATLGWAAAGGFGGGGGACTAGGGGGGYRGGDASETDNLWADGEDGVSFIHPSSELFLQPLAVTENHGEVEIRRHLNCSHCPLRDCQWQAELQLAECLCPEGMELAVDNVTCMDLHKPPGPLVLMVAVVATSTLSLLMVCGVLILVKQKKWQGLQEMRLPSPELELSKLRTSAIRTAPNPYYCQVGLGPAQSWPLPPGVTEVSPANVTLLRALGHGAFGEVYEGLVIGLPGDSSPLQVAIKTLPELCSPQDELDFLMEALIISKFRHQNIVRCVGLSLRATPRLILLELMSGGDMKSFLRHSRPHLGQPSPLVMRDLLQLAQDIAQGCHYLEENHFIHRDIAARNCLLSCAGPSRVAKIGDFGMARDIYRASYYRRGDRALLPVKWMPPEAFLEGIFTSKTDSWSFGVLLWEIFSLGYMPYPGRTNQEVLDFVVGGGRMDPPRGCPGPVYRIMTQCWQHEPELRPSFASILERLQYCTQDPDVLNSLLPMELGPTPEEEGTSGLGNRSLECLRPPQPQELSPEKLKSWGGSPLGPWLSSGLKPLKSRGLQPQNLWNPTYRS
Description: as §1

Chain of 363 human kinases (including Aurora A/B/C) (Homo sapiens, UniProt Q13164) (Q13164 whole entry): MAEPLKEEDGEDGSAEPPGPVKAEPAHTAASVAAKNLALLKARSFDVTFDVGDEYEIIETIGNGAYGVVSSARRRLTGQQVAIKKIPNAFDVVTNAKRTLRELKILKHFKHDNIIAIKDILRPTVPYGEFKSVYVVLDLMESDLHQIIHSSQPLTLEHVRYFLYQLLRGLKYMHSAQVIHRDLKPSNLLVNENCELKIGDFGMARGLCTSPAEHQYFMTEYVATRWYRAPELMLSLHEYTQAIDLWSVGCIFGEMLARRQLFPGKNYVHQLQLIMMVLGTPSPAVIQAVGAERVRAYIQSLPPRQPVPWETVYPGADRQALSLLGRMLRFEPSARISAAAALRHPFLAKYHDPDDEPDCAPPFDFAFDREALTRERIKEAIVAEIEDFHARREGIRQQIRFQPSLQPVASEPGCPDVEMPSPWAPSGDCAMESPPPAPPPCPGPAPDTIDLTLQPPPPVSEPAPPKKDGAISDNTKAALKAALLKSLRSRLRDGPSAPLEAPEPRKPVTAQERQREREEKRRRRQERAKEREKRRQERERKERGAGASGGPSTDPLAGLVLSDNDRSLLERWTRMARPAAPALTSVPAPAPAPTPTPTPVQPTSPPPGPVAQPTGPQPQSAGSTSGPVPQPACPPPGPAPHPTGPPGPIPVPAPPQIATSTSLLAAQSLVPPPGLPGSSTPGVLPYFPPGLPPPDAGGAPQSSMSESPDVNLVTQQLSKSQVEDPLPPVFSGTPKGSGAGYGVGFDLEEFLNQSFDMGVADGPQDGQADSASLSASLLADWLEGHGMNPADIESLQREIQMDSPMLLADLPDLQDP

For the compound `O=C(c1cccc(Cl)c1F)N1CCN(Cc2cccc(Nc3nccs3)n2)CC1` [MK-8745], the “% Enzyme Activity (relative to DMSO controls)” value in [1] (500 nM) is given as 88.71%; in [2] (500 nM) it was 46.05%; in assay [3] (500 nM) it was 109.55%; in [4] (500 nM), 120.37%; in [5] (500 nM), 107.51%; in assay [6] (500 nM) it was 96.11%. In addition, the “% Enzyme Activity (relative to DMSO controls)” value in assay [7] (500 nM) worked out at 90.95%; in assay [8] (500 nM) it was 99.16%; in assay [9] (500 nM), 64.18%; in [10] (500 nM), 94.24%. Also, the remaining activity at 0.5 µM in [1] (500 nM) worked out at 89%; in assay [2] (500 nM), 46.6%; in [3] (500 nM) it was 110%; in [4] (500 nM), 120%; in assay [5] (500 nM) it was 109%; in [6] (500 nM), 96.7%. Further, the remaining activity at 0.5 µM in [7] (500 nM) came out at 91.3%; in assay [8] (500 nM), 100%; in [9] (500 nM), 65.1%; in assay [10] (500 nM) it was 96.4%.

In the case of `CCn1cc(-c2ccnc3[nH]c(-c4cccc(CN(C)C)c4)cc23)c(-c2ccc(NC(=O)N(C)C)cc2)n1` [GSK1070916], the remaining activity at 0.1 µM in assay [1] amounted to 97.6%; in assay [2] it was 91.8%; in assay [3], 106%; in assay [4], 102%; in [5], 102%; in assay [6], 87.5%. In addition, the remaining activity at 0.1 µM in assay [7] was 84.3%; in assay [8] it was 100%; in [9] it was 79.2%; in assay [10], 106%.

For `O=C(O)[C@]1(Cc2cccc(Nc3nccs3)n2)CC[C@@H](Oc2cccc(Cl)c2F)CC1` [MK-5108], the remaining activity at 0.1 µM was determined as 95.3% in [1]; 87.7% in assay [2]; 116% in [3]; 111% in assay [4]; 98.5% in assay [5]; 36.8% in [6]. For the same compound, the remaining activity at 0.1 µM in [7] is 94%; in assay [8], 111%; in assay [9], 76.9%; in assay [10], 87.6%. Further, the remaining activity at 0.5 µM in assay [1] (500 nM) was found to be 95.4%; in [2] (500 nM), 48.4%; in [3] (500 nM), 130%; in assay [4] (500 nM) it was 101%; in assay [5] (500 nM), 109%; in assay [6] (500 nM) it was 13.1%. For the same compound, the remaining activity at 0.5 µM in [7] (500 nM) was 86.4%; in [8] (500 nM), 98.3%; in assay [9] (500 nM) it was 45.6%; in [10] (500 nM), 64.2%.
